Test results from PubChem BioAssay (NCI).
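A five-concentration, 48-hour dose response in 96-well plates underlies each endpoint, interpolated linearly between surrounding concentrations. GI50 marks 50% less growth. Definition used: TGI = concentration required for complete inhibition of growth.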

How the values were obtained:
Test in all cases: inhibition of tumour cell growth, NCI panel, 48 h
[1] = test system: K-562 leukemia
[2] = test system: RXF 393 renal
[3] = test system: HOP-92 NSCLC
[4] = test system: HS 578T breast
[5] = test system: HL-60(TB) leukemia
[6] = test system: NCI-H522 lung
[7] = test system: SNB-19 CNS
[8] = test system: NCI-H23 lung
[9] = test system: MOLT-4 leukemia
[10] = test system: HCC-2998 colon
[11] = test system: CCRF-CEM leukemia
[12] = test system: IGROV1 ovarian
[13] = test system: SNB-75 CNS
[14] = test system: SF-268 CNS
[15] = test system: SK-MEL-2 melanoma
[16] = test system: HCT-116 colon
[17] = test system: NCI/ADR-RES ovarian
[18] = test system: DU-145 prostate
[19] = test system: T-47D breast
[20] = test system: OVCAR-5 ovarian
[21] = test system: SF-295 CNS
[22] = test system: MALME-3M melanoma
[23] = test system: MCF7 breast
[24] = test system: SK-MEL-5 melanoma
[25] = test system: U251 CNS
[26] = test system: EKVX NSCLC
[27] = test system: SN12C renal
[28] = test system: OVCAR-4 ovarian
[29] = test system: NCI-H460 lung
[30] = test system: OVCAR-3 ovarian
[31] = test system: SF-539 CNS
[32] = test system: SW-620 colon
[33] = test system: UACC-62 melanoma
[34] = test system: COLO 205 colon
[35] = test system: RPMI-8226 leukemia
[36] = test system: MDA-MB-435
[37] = test system: UACC-257 melanoma
[38] = test system: SK-OV-3 ovarian
[39] = test system: TK-10 renal
[40] = test system: ACHN renal
[41] = test system: A549 NSCLC
[42] = test system: LOX IMVI melanoma
[43] = test system: MDA-MB-231 breast
[44] = test system: NCI-H226 lung
[45] = test system: UO-31 renal
[46] = test system: 786-0 renal
[47] = test system: PC-3 prostate
[48] = test system: CAKI-1 renal
[49] = test system: HOP-62 NSCLC

O=c1cc(-c2ccccc2)oc2cc(OCc3cn(Cc4ccc(F)cc4)nn3)cc(OCc3cn(Cc4ccc(F)cc4)nn3)c12
GI50 [1]: > 100 µM | TGI [1]: > 100 µM | GI50 [2]: 1.78 µM | TGI [2]: 4.5 µM | GI50 [3]: 1.89 µM | TGI [3]: 5.52 µM | GI50 [4]: 3.28 µM | TGI [4]: > 100 µM | GI50 [5]: > 100 µM | TGI [5]: > 100 µM | GI50 [6]: 3.66 µM | TGI [6]: > 100 µM | GI50 [7]: 4.55 µM | TGI [7]: > 100 µM | GI50 [8]: 3.7 µM | TGI [8]: > 100 µM | GI50 [9]: > 100 µM | TGI [9]: > 100 µM | GI50 [10]: > 100 µM | TGI [10]: > 100 µM | GI50 [11]: > 100 µM | TGI [11]: > 100 µM | GI50 [12]: 4.45 µM | TGI [12]: > 100 µM | GI50 [13]: 1.69 µM | TGI [13]: 4.85 µM | GI50 [14]: 3.52 µM | TGI [14]: > 100 µM | GI50 [15]: 4.49 µM | TGI [15]: 33.1 µM | GI50 [16]: 3.52 µM | TGI [16]: > 100 µM | GI50 [17]: > 100 µM | TGI [17]: > 100 µM

Cc1ccc2c(c1)C(=O)C(c1c(-c3[nH]c(=O)c4ccc(C)cc4c3O)c(O)c3ccccc3c1O)=NC2=O
GI50 [18]: 1.18 µM | TGI [18]: 2.9 µM | GI50 [19]: 1.48 µM | TGI [19]: 5.26 µM | GI50 [1]: 0.378 µM | TGI [1]: 3.44 µM | GI50 [20]: 2.87 µM | TGI [20]: > 100 µM | GI50 [3]: 1.66 µM | TGI [3]: 5.1 µM | GI50 [4]: 2.34 µM | TGI [4]: 6.33 µM | GI50 [21]: 1.67 µM | TGI [21]: 3.55 µM | GI50 [22]: 1.76 µM | TGI [22]: 3.54 µM | GI50 [23]: 1.59 µM | TGI [23]: 4.58 µM | GI50 [24]: 1.87 µM | TGI [24]: 3.81 µM | GI50 [25]: 1.24 µM | TGI [25]: 2.7 µM | GI50 [26]: 1.72 µM | TGI [26]: 5.66 µM | GI50 [27]: 1.8 µM | TGI [27]: 3.63 µM | GI50 [28]: 1.17 µM | TGI [28]: 2.43 µM | GI50 [29]: 1.78 µM | TGI [29]: 3.39 µM | GI50 [30]: 0.832 µM | TGI [30]: 2.4 µM | GI50 [31]: 1.67 µM | TGI [31]: 3.31 µM | GI50 [7]: 2.31 µM | TGI [7]: 7.3 µM | GI50 [32]: 1.56 µM | TGI [32]: 3.44 µM | GI50 [33]: 1.76 µM | TGI [33]: 3.79 µM | GI50 [34]: 2.85 µM | TGI [34]: 12.8 µM | GI50 [8]: 1.63 µM | TGI [8]: 4.04 µM | GI50 [9]: 0.527 µM | TGI [9]: 3.02 µM | GI50 [10]: 2.3 µM | TGI [10]: 4.97 µM | GI50 [35]: 2.32 µM | TGI [35]: 6.68 µM | GI50 [11]: 0.83 µM | TGI [11]: 8.03 µM | GI50 [13]: 1.42 µM | TGI [13]: 2.84 µM | GI50 [14]: 2.24 µM | TGI [14]: 5.47 µM | GI50 [36]: 1.69 µM | TGI [36]: 3.29 µM | GI50 [37]: 3.04 µM | TGI [37]: 7.98 µM | GI50 [38]: 2.15 µM | TGI [38]: 5.36 µM | GI50 [39]: 2.91 µM | TGI [39]: 5.97 µM | GI50 [40]: 1.72 µM | TGI [40]: 4.36 µM | GI50 [16]: 0.423 µM | TGI [16]: 1.53 µM | GI50 [41]: 2.1 µM | TGI [41]: 4.26 µM | GI50 [17]: 2.11 µM | TGI [17]: 7.56 µM | GI50 [42]: 1.28 µM | TGI [42]: 2.71 µM | GI50 [43]: 0.457 µM | TGI [43]: 3.86 µM

COc1cccc(C2CC(=O)c3cc(N4CCCC4)ccc3N2)c1 (stereo not given)
TGI [44]: 36.3 µM | TGI [19]: > 100 µM | TGI [1]: > 100 µM | GI50 [20]: > 100 µM | TGI [20]: > 100 µM | GI50 [3]: > 100 µM | TGI [3]: > 100 µM | TGI [4]: > 100 µM | TGI [21]: > 100 µM | GI50 [23]: 0.0739 µM | TGI [23]: > 100 µM | TGI [26]: > 100 µM | TGI [6]: 0.0624 µM | TGI [45]: 65.8 µM | TGI [28]: > 100 µM | TGI [46]: > 100 µM | TGI [30]: > 100 µM | TGI [31]: > 100 µM | TGI [47]: > 100 µM | TGI [7]: > 100 µM | TGI [32]: > 100 µM | TGI [8]: 0.163 µM | GI50 [10]: 0.0146 µM | TGI [10]: 0.389 µM | TGI [35]: > 100 µM | TGI [11]: > 100 µM | TGI [48]: > 100 µM | TGI [36]: 1.49 µM | TGI [37]: > 100 µM | GI50 [15]: 64.5 µM | TGI [15]: > 100 µM | TGI [49]: > 100 µM | GI50 [39]: 45.5 µM | TGI [39]: > 100 µM | TGI [40]: 34.8 µM | TGI [41]: > 100 µM | TGI [17]: 0.0491 µM | TGI [42]: > 100 µM | GI50 [43]: 4.66 µM | TGI [43]: > 100 µM
